Data reported in paper PMC3265293, “Artificial 64-Residue HIV-1 Enhancer-Binding Peptide Is a Potent Inhibitor of Viral Replication in HIV-1-Infected Cells” (Advances in Virology, 2011).
Where no end group is shown, it is not given here.

Legend:
CEM-GFP cells = assay: MTT assay of PMA-stimulated CEM-GFP cells; type: cell-based, human; conditions: PMA and increasing concentrations of peptide, after 48 h
Method: After 48 h, cell growth-inhibitory effects of the peptides and PMA were assessed using the 3-[4,5-dimethylthiazol-2-yl]-2,5-diphenyltetrazolium bromide (MTT) assay.

plasma membrane = system: plasma membrane; set-up: method as in earlier work; conditions: ref earlier work; cited from earlier work

Question: Which results are given for “GKTKRPRFGKTKRPRVGQQSIEQLENGKTKRPRFGKTKRPRY [R42]”?
Answer: cytotoxicity (MTT assay) (CEM-GFP cells): not observed; ability to pass the plasma membrane (plasma membrane): not able to pass the plasma membrane
